Measured values from patent US7960435B2, “Anti-cancer agents and androgen inhibition activity compound” (University of Maryland, Baltimore, priority 2006, dated 2011).
pEC50: −log10 of the molar value. Where two headings read alike, the source gives them in different places.

Experiments:
LNCaP cells = test: Cell growth inhibition (MTT colorimetric assay), LNCaP; format: cell-based, human; conditions: for GI50: LNCaP (mutant AR), MTT, means of three experiments, called IC50, read-out: Cytotoxicity GI50 (nM) LNCaP
Text: (§1) Lead optimization of BTB01434 and further biological studies: BTB01434 (Maybridge) was used as a lead molecule to synthesize new molecules. Although this compound was not as potent as some of the others (cf. Table 4), it was chosen for its ease of modification. New compounds (6-23) were developed using the diaryl sulfonamide compound BTB01434 (FIG. 6) as a scaffold. […] Including new BTB01434 analogs, including diaryl sulfonamide analogs bearing various substituents on the phenyl rings (series A), aryl amide analogs (series B), and amine analogs (series C). These new compounds were evaluated for cell growth inhibition in two human prostate cancer cell lines, (LNCaP and PC-3) by MTT assay. Based on the structures and anti-prostate cancer activities of the new compounds, a structure-activity relationship (SAR) was formulated.
Androgen-dependent LNCaP cells were obtained from American Type Culture Collection (Rockville, Md., USA). Cells were maintained in RPMI 1640 medium supplemented with 10% fetal bovine serum (Atlanta Biologicals, Lawrenceville, Ga., USA) and 1% penicillin/streptomycin. Cells were grown as a monolayer in T75 or T150 tissue culture flasks in a humidified incubator (5% CO2, 95% air) at 37° C.
(§2) LNCaP cells were seeded in 24 well plates (Corning Costar) at a density of 2×10^4 cells per well per 1 mL of medium. Cell were allowed to adhere to the plate for 24 hours and then treated with different concentrations of ARDAs dissolved in DMSO. Cells were treated for five days with renewal of ARDA and media on day 3. On the fifth day, medium was renewed and 100 μL of MTT (3-(4,5-dimethylthiazol-2-yl)-2,5-diphenyl-2H-tetrazolium bromide from Sigma) solution (0.5 mg MTT/mL of medium) was added to the medium such that the ratio of MTT:medium was 1:10. The cells were incubated with MTT for 2 hours. The medium was then aspirated and 500 μL of DMSO was added to solubilize the violet MTT-formazan product. The absorbance at 560 nm was measured by spectrophotometry (Victor 1420 multilabel counted, Wallac). For each concentration of ARDA there were triplicate wells in each independent experiment. IC50 values were calculated by nonlinear regression analysis using GraphPad Prism software.

[1] = test system: AR-mediated transcription (LNCaP-AR); test: Luciferase transactivation assay in LNCaP cells transfected with ARR2-Luc; format: cell-based, human; conditions: for effect on luciferase activity, compound alone: without DHT
Experimental: FIG. 12. […] Cells in steroid-free medium were treated with vehicle, or increasing concentrations of either 9 or 11 with and without 5 nM DHT for 18 h. Cells were then assayed for luciferase activity using a know assay.^10
To determine if the compounds act as AR agonists or antagonists, androgen regulated transcriptional activation studies were performed in LNCaP cells transiently transfected with the probasin luciferase reported construct ARR2-Luc.
(§3) These assays were performed as previously described.^10

wild-type AR = biological target: T1, wild-type AR (Homo sapiens, UniProt P10275); test: Competitive androgen receptor binding with [3H]-R1881 in PC-3-AR cells; conditions: for reduction of [3H]-R1881 binding: PC-3-AR cells
T1 construct: expressed in transfected cells; host or cells: PC-3 (stably transfected, PC-3-AR)
T1 sequence (P10275 1-920): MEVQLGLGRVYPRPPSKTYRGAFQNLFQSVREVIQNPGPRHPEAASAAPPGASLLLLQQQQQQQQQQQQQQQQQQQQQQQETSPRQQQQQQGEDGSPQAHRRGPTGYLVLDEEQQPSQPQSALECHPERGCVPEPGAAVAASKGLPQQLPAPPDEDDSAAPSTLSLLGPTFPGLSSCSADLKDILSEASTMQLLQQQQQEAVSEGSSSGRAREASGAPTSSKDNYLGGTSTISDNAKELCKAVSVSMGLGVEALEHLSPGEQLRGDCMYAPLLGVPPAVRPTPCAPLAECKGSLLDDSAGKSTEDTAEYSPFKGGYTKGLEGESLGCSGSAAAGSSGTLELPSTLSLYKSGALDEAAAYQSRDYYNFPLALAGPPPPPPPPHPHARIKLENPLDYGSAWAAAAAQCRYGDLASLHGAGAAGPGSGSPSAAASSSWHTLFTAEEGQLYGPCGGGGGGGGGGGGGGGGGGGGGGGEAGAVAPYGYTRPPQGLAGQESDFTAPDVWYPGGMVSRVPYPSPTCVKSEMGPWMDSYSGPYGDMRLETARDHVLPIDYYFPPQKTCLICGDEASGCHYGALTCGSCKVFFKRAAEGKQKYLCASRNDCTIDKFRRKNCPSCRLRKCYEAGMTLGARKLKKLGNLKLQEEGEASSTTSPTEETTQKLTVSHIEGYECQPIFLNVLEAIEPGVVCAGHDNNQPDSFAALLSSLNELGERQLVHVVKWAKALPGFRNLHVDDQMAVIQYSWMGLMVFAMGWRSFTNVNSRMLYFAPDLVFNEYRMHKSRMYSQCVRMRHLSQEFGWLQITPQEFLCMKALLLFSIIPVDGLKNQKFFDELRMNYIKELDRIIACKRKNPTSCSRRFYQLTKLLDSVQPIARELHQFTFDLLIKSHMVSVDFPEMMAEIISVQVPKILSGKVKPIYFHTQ
Experimental: In both cell lines, compounds 9 and 11 were able to effectively compete with labeled R1881 in a dose-dependent fashion (FIG. 11). In PC-3-AR cells compound II reduced [^3H]-R1881 binding by 65% and 80% at 10 μM and 20 μM, respectively. […] Compound 9 reduced [^3H]-R1881 binding by 50% and 65% at 10 μM and 20 μM, respectively, and was equipotent in both cell lines.
as §3

PC-3 cells = test: Cell growth inhibition (MTT assay), PC-3; format: cell-based, human; conditions: PC-3 (AR null), means of three experiments, called IC50, read-out: Cytotoxicity GI50 (nM) PC-3
Text: as §1
Inhibition of prostate cancer cell proliferation and SAR: The exemplary compounds were then tested for their ability to inhibit cell viability in both the LNCaP (mutant AR) and PC-3 (AR null) cell lines (Table 5).
as §2

androgen receptor (AR) = test: AR protein expression down-regulation in LNCaP cells (Western blot); format: cell-based, human
Experimental: All five known ARDAs (FIG. 1) were evaluated for their ability to decrease AR protein expression in a dose dependent manner and dose response curves were generated to determine their EC50 values.
These compounds were further evaluated to determine their EC50 values (from dose response curves).
For immunoblot detection of the AR, LNCaP cells were cultured as described above in T25 flasks. Cells were treated with various concentrations of ARDAs and whole cell lysates were prepared using lysis buffer containing 0.1M Tris, 0.5% Triton X-100, and protease inhibitor. Protein content was determined using the Bradford Assay (Bio-Rad, Hercules, Calif., USA). Protein was subjected to SDS-PAGE (10% acrylamide) and transferred onto nitrocellulose membrane. The blots were blocked overnight in 5% nonfat milk in PBS-T buffer at 4° C. Monoclonal antibody was used against the AR (AR441; sc-7305; Santa Cruz Biotechnology, Santa Cruz, Calif.; 1:500 dilution) at room temperature for one hour. Membranes were then incubated with a goat anti-mouse IgG secondary antibody conjugated to horseradish peroxidase (Bio-Rad cat #170-6516; 1:2000 dilution) at room temperature for one hour. Blots were rinsed with PBS-T between each step and specific bands were visualized by enhanced chemiluminescence (ECL; Amersham Biosciences, Arlington Heights, Ill., USA). Equivalent loading of samples was determined by reprobing membranes with β-actin (Calbiochem, USA). Protein expression was normalized to β-actin.

[2] = decrease of AR protein expression, LNCaP cells, training set ARDAs (Table 1), read-out: EC50 values
[3] = AR down-regulation, LNCaP cells (Table 5), read-out: ARDA EC50

Which results are given for Cc1ccc(NS(=O)(=O)c2ccc(C)cc2)cc1 [Compound 11, (4-Methylphenyl)[(4-methylphenyl)sulfonyl]amine]?
GI50 (LNCaP cells; Homo sapiens, LNCaP): 1.45 nM; effect on luciferase activity, compound alone ([1]; 0.1 μM): no effect; reduction of luciferase expression in the presence of DHT ([1]; 10 μM, with 5 nM DHT): 80%; effect on luciferase activity, compound alone ([1]; 10 μM): no effect; greater inhibition of [3H]-R1881 binding to wild-type AR than to mutated receptor (wild-type AR; 10 μM and above): approximately 20%; reduction of [3H]-R1881 binding (wild-type AR; 10 μM): 65%; reduction of [3H]-R1881 binding (wild-type AR; 20 μM): 80%; GI50 (PC-3 cells; Homo sapiens): 30200 nM

Cc1ccc(N(C)S(=O)(=O)c2ccc(C)cc2)cc1 [Compound 18, Methyl(4-methylphenyl)[(4-methylphenyl)sulfonyl]amine] was tested. Which GI50 (LNCaP cells; Homo sapiens, LNCaP) did it give?
Its GI50 is 89200 nM.

And the GI50 (PC-3 cells; Homo sapiens)?
Its GI50 is 44700 nM.

Cc1ccc(NC(=O)c2ccc(C)cc2)cc1 [Compound 19, (4-Methylphenyl)-N-(4-methylphenyl)carboxamide] was tested. Which GI50 (LNCaP cells; Homo sapiens, LNCaP) did it give?
The GI50 was 55000 nM.

What about the GI50 (PC-3 cells; Homo sapiens) of the same molecule?
Its GI50 is 26900 nM.

COc1cc(/C=C/C(=O)CC(=O)/C=C/c2ccc(O)c(OC)c2)ccc1O [Curcumin (4), curcumin] was tested. Which pEC50 (androgen receptor (AR); [2]) did it give?
Its pEC50 is 4.46.

With O=S(=O)(Nc1ccccc1)c1ccccc1 [Compound 17, Phenyl(phenylsulfonyl)amine] as the molecule, how does the GI50 (LNCaP cells; Homo sapiens, LNCaP) read?
The GI50 was 53500 nM.

What about the GI50 (PC-3 cells; Homo sapiens) of the same molecule?
The GI50 was greater than 100000 nM.

Which “stimulation of luciferase activity” value ([1]; 5 nM) does the source give for C[C@]12CCC(=O)C[C@@H]1CC[C@@H]1[C@@H]2CC[C@]2(C)[C@@H](O)CC[C@@H]12 [DHT, dihydrotestosterone, reference compound] here?
The value was “approximately 200 fold”.

For Cc1ccc(NS(=O)(=O)c2ccccc2)c([N+](=O)[O-])c1 [Compound 8, (4-Methyl-2-nitrophenyl)(phenylsulfonyl)amine], which GI50 (LNCaP cells; Homo sapiens, LNCaP) is on record?
Its GI50 is 2.95 nM.

What about the GI50 (PC-3 cells; Homo sapiens) of the same molecule?
The GI50 was 60200 nM.

What does the source list for Cc1ccc(-c2nnn[nH]2)c(NS(=O)(=O)c2ccc(F)cc2)c1 [Compound 14, (2-(1H-1,2,3,4-tetrazole-5-yl)-5-methylphenyl)[(4-fluorophenyl)sulfonyl]amine]?
GI50 (LNCaP cells; Homo sapiens, LNCaP): > 100000 nM; GI50 (PC-3 cells; Homo sapiens): > 100000 nM

Cc1ccc(S(=O)(=O)Nc2ccc(C)cc2[N+](=O)[O-])cc1 [BTB01434, reference compound] was tested. Which GI50 (LNCaP cells; Homo sapiens, LNCaP) did it give?
The GI50 was 39800 nM.

And the IC50 (LNCaP cells; Homo sapiens, LNCaP cells (Table 4), read-out: IC50 (μM), effect on LNCaP cell viability)?
Its IC50 is 39.8 µM.

What about the pEC50 (androgen receptor (AR); [3]) of the same molecule?
The pEC50 was 4.12.

What about the EC50 (androgen receptor (AR); LNCaP cells, database hits (Table 4), read-out: EC50 (μM), ability to down-regulate AR protein expression) of the same molecule?
Its EC50 is 76 µM.

And the GI50 (PC-3 cells; Homo sapiens)?
The GI50 was 43700 nM.

With Cc1ccc(S(=O)(=O)Nc2ccccc2[N+](=O)[O-])cc1 [Compound 6, [(4-Methylphenyl)sulfonyl](2-nitrophenyl)amine] as the molecule, how does the GI50 (LNCaP cells; Homo sapiens, LNCaP) read?
The GI50 was 83 nM.

What about the pEC50 (androgen receptor (AR); [3]) of the same molecule?
Its pEC50 is less than 3.82.

What about the GI50 (PC-3 cells; Homo sapiens) of the same molecule?
Its GI50 is 50100 nM.

Cc1ccc(NS(=O)(=O)c2ccccc2)cc1 [Compound 15, (4-methylphenyl)(phenylsulfonyl)amine] was tested. Which GI50 (LNCaP cells; Homo sapiens, LNCaP) did it give?
Its GI50 is 21300 nM.

What about the GI50 (PC-3 cells; Homo sapiens) of the same molecule?
Its GI50 is 13800 nM.

O=C(O)c1ccccc1Nc1cccc(C(F)(F)F)c1 [Flufenamic acid (3), flufenamic acid] was tested. Which pEC50 (androgen receptor (AR); [2]) did it give?
Its pEC50 is roughly 3.70.

What does the source list for Cc1ccc(C#N)c(NS(=O)(=O)c2ccc(F)cc2)c1 [Compound 13, 2-{[(4-fluorophenyl)sulfonyl]amino}-4-methylbenzenecarbonitrile]?
GI50 (LNCaP cells; Homo sapiens, LNCaP): 30200 nM; GI50 (PC-3 cells; Homo sapiens): ~100000 nM

How did the GI50 (LNCaP cells; Homo sapiens, LNCaP) turn out when Cc1ccc(NCc2ccccc2)cc1 [Compound 23, (4-Methylphenyl)benzylamine] was run?
Its GI50 is greater than 100000 nM.

And the GI50 (PC-3 cells; Homo sapiens)?
Its GI50 is 52400 nM.

Which results are given for Cc1ccc(NS(=O)(=O)c2ccc(F)cc2)c(C(=O)O)c1 [Compound 12, {[(4-fluorophenyl)sulfonyl]amino}-5-methylbenzoicacid]?
GI50 (LNCaP cells): 10700 nM; GI50 (PC-3 cells): > 100000 nM

Which GI50 (LNCaP cells; Homo sapiens, LNCaP) does the source give for Cc1ccc(NS(=O)(=O)c2ccccc2)c(C(=O)O)c1 [Compound 10, 5-Methyl-2-[(phenylsulfonyl)amino]benzoic acid] here?
The GI50 was 18.2 nM.

What does the source list for Cc1ccc(S(=O)(=O)Nc2ccccc2)cc1 [Compound 16, [(4-Methylphenyl)sulfonyl]phenylamine]?
GI50 (LNCaP cells; Homo sapiens, LNCaP): 24000 nM; GI50 (PC-3 cells; Homo sapiens): 38900 nM

Which GI50 (LNCaP cells; Homo sapiens, LNCaP) does the source give for Cc1ccc(CNc2ccc(C)cc2)cc1 [Compound 21, (4-Methylphenyl) [(4-methylphenyl)methyl]amine] here?
The GI50 was 19000 nM.

And the GI50 (PC-3 cells; Homo sapiens)?
The GI50 was 29500 nM.
